This test concerns the target Mitogen-activated protein kinase 14 (Mus musculus, UniProt P47811). The experiment in a line: UV-Thermal Melt. The procedure: UV thermal melt experiments were carried out in a quartz cuvette loaded with sample containing enzyme and each test compound using a spectrophotometer. For each measurement, absorbance data at 230 nm was collected as the temperature was scanned from 25 to 80 C at a ramp rate of 0.2 C /min. The melting temperature (Tm) for each sample was calculated as the maximum deflection point of the first derivative of the melting transition.

Drawing on BindingDB's records for doi:10.1021/jm030121k (Boehringer Ingelheim Pharmaceuticals, 2003), this text covers Kd for one compound.

Chain of Mitogen-activated protein kinase 14 (P47811 whole entry): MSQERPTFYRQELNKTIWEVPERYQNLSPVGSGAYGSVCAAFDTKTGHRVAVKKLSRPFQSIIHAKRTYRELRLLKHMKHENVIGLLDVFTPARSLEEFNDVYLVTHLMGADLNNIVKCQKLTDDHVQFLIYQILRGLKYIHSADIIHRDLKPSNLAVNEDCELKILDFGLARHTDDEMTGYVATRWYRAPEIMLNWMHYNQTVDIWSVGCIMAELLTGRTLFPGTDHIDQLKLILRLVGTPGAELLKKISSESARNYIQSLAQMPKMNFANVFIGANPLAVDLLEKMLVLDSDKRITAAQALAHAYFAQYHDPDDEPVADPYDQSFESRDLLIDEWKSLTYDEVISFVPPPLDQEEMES

As for `Cc1ccc(-n2nc(C(C)(C)C)cc2NC(=O)Nc2cccc3ccccc23)cc1` [BIRB-796 Analog 4], binding was put at a Kd of 0.011 µM.
